In patent US20080194585A1, “Fungicidal Pyrazine Derivatives” (priority 2005, published 2008):
Marks after values point to notes of the source that are not given here.

How the values were obtained:
Pythium aphanidermatum = assay: Test A: bluegrass pythium blight, preventive spray on bluegrass seedlings
Septoria nodorum = assay: Test H: wheat glum blotch, preventive spray on wheat seedlings
Protocol: (the causal agent of wheat glum blotch) and incubated in a saturated atmosphere at 20° C. for 48 h, and then moved to a growth chamber at 22° C. for 5 days, after which disease ratings were made.

Septoria tritici = assay: Test J: wheat leaf blotch, preventive spray on wheat seedlings; type: in vivo
Excerpt: A dash (-) indicates no test results.

Plasmopara viticola = assay: Test D: grape downy mildew, spray after inoculation of grape seedlings; type: in vivo
Excerpt: Upon removal, disease ratings were made. […] A dash (-) indicates no test results.

Rhizoctonia oryzae = assay: Test G: turf brown patch, preventive spray on creeping bent grass seedlings
Protocol: (the causal agent of turf brown patch) and incubated in a saturated atmosphere at 27° C. for 24 h, and then moved to a growth chamber at 27° C. for 5 days, after which disease ratings were made.

Sclerotinia sclerotiorum = assay: Test C: cucumber white mold, preventive spray on cucumber seedlings
Phytophthora infestans = assay: whole plant or invertebrate; type: in vivo
[1] = system: Puccinia recondita f. sp. tritici; assay: Test K: wheat leaf rust, preventive spray on wheat seedlings
fusarium graminearium = assay: Test I: wheat head scab, preventive spray on wheat seedlings
Protocol: (the causal agent of wheat head scab) and incubated in a saturated atmosphere at 20° C. for 72 h, and then moved to a growth chamber at 22° C. for 5 days, after which disease ratings were made.

[2] = system: Colletotrichum orbiculare; assay: Test B: cucumber Colletotrichum anthracnose, preventive spray on cucumber seedlings
[3] = system: Erysiphe graminis f. sp. tritici; assay: Test L: wheat powdery mildew, preventive spray on wheat seedlings
Botrytis cinerea = assay: Test E: tomato botrytis, preventive spray on tomato seedlings

| SMILES | Test A disease control rating (Pythium aphanidermatum; 200 ppm) [%] | Test D disease control rating (Plasmopara viticola; 200 ppm) [%] | Test C disease control rating (Sclerotinia sclerotiorum; 200 ppm) [%] | Test F disease control rating (Phytophthora infestans; 200 ppm) [%] | Test I disease control rating (fusarium graminearium; 200 ppm) [%] | Test H disease control rating (Septoria nodorum; 40 ppm (*)) | Test J disease control rating (Septoria tritici; 40 ppm (*)) | Test G disease control rating (Rhizoctonia oryzae; 40 ppm (*)) | Test K disease control rating ([1]; 40 ppm (*)) | Test B disease control rating ([2]; 40 ppm (*)) | Test L disease control rating ([3]; 40 ppm (*)) | Test E disease control rating (Botrytis cinerea; 40 ppm (*)) | other results |
| --- | --- | --- | --- | --- | --- | --- | --- | --- | --- | --- | --- | --- | --- |
| O=c1c(-n2cccn2)nc(Cl)c(-c2c(F)cccc2F)n1Cc1ccccc1 [compound 104] | 0 | 9 | 0 | 0 | 0 |  |  |  |  |  |  |  | Test H disease control rating (Septoria nodorum; 200 ppm): 100%; Test J disease control rating (Septoria tritici; 200 ppm): 100%; Test G disease control rating (Rhizoctonia oryzae; 200 ppm): 95%; Test K disease control rating ([1]; 200 ppm): 100%; Test B disease control rating ([2]; 200 ppm): 100%; Test L disease control rating ([3]; 200 ppm): 100%; Test E disease control rating (Botrytis cinerea; 200 ppm): 100% |
| COc1cc(OC)c(-c2c(Cl)nc(-n3cncn3)c(=O)n2CC(C)C)c(OC)c1 [compound 112] | 0 | 0 | 0 | 0 | 57 | 0* % | 0* % | 0* % | 0* % | 0* % | 0* % | 0* % |  |
| CC(C)Cn1c(-c2c(F)cccc2C(F)(F)F)c(Cl)nc(-n2cncn2)c1=O [compound 113] | 0 | 0 | 93 | 0 | 98 | 0* % | 2* % | 26* % | 0* % | 0* % | 0* % | 0* % |  |
| CC(C)Cn1c(-c2ccc3c(c2)OCO3)c(Cl)nc(-n2cncn2)c1=O [compound 114] | 0 | 0 | 0 | 0 | 0 | 99* % | 89* % | 0* % | 0* % | 0* % | 0* % | 97* % |  |
| CC(C)Cn1c(-c2cc(Br)c3c(c2)OCO3)c(Cl)nc(-n2cncn2)c1=O [compound 115] | 0 | 0 | 0 | 0 | 0 | 0* % | 0* % | 0* % | 0* % | 0* % | 0* % | 0* % |  |
| CC(C)Cn1c(-c2cc(Cl)cc(Cl)c2)c(Cl)nc(-n2cncn2)c1=O [compound 116] | 0 | 0 | 0 | 53 | 0 | 0* % | 5* % | 0* % | 0* % | 0* % | 0* % | 0* % |  |
| CC(C)Cn1c(-c2ccc(C(F)(F)F)cc2F)c(Cl)nc(-n2cncn2)c1=O [compound 117] | 0 | 0 | 0 | 0 | 83 | 0* % | 2* % | 0* % | 0* % | 0* % | 0* % | 0* % |  |
| CC(C)Cn1c(-c2ccc(Cl)cc2Cl)c(Cl)nc(-n2cncn2)c1=O [compound 118] | 0 | 0 | 98 | 16 | 81 |  |  |  |  |  |  |  | Test H disease control rating (Septoria nodorum; 200 ppm): 92%; Test J disease control rating (Septoria tritici; 200 ppm): 100%; Test G disease control rating (Rhizoctonia oryzae; 200 ppm): 71%; Test K disease control rating ([1]; 200 ppm): 91%; Test B disease control rating ([2]; 200 ppm): 96%; Test L disease control rating ([3]; 200 ppm): 0%; Test E disease control rating (Botrytis cinerea; 200 ppm): 99% |
| CC(C)Cn1c(-c2ccc3ccccc3c2)c(Cl)nc(-n2cncn2)c1=O [compound 119] | 0 | 0 | 0 | 0 | 76 | 0* % | 68* % | 0* % | 0* % | 0* % | 0* % | 0* % |  |
| CC(C)Cn1c(-c2c(Cl)ccc(Cl)c2Cl)c(Cl)nc(-n2cncn2)c1=O [compound 120] | 0 | 0 | 93 | 0 | 86 | 64* % | 91* % | 0* % | 55* % | 0* % | 0* % | 99* % |  |
| COC(=O)Cn1c(-c2c(F)cccc2F)c(Cl)nc(-n2cccn2)c1=O [compound 122] |  |  |  |  |  | 0* % | 7* % | 16* % | 28* % | 0* % | 0* % | 49* % | Test A disease control rating (Pythium aphanidermatum; 40 ppm (*)): 0* %; Test D disease control rating (Plasmopara viticola; 40 ppm (*)): 58* %; Test C disease control rating (Sclerotinia sclerotiorum; 40 ppm (*)): 0* %; Test F disease control rating (Phytophthora infestans; 40 ppm (*)): 0* %; Test I disease control rating (fusarium graminearium; 40 ppm (*)): 0* % |
| COC(=O)Cn1c(-c2c(F)cccc2F)c(Cl)nc(-n2cncn2)c1=O [compound 123] |  |  |  |  |  | 0* % | 19* % | 0* % | 0* % | 0* % | 0* % | 0* % | Test A disease control rating (Pythium aphanidermatum; 40 ppm (*)): 0* %; Test D disease control rating (Plasmopara viticola; 40 ppm (*)): 0* %; Test C disease control rating (Sclerotinia sclerotiorum; 40 ppm (*)): 0* %; Test F disease control rating (Phytophthora infestans; 40 ppm (*)): 0* %; Test I disease control rating (fusarium graminearium; 40 ppm (*)): 0* % |
